Laboratory results: patent US4129737A, “Process for the preparation of an 8-alkyl-5-oxo-5,8-dihydro-pyrido(2,3-d)pyrimidine-6-carboxylic acid” (priority 1972, dated 1978)
Converted amounts (≈) assume the structure as drawn. Where two headings read alike, the source gives them in different places.

Tests used:
Assay type in all cases: cell-based
[1] = system: Bord. bronchiseptica; assay: Minimum inhibitory concentration by agar dilution, Bord. bronchiseptica; conditions: Bordetella bronchiseptica, 37° C., 18 hours, read-out: minimum inhibitory concentration (M.I.C.)
Experimental: (§1) (a) Trypticase soya medium (T.S.A.), which is very suitable for culturing the majority of microorganisms; it has the following composition:
(§2) (b) Ordinarily nutrient agar (N.A.), which is less rich in nutrients, corresponds to the following formulation: […]
(§3) Table I gives the minimum inhibitory concentrations (expressed in μg/cm^3) for the various microorganisms tested on each medium.
(§4) The products were tested on three Gram positive microorganisms (1 to 3) […] and on 10 Gram negative microorganisms (4 to 13).
(§5) Table (II) gives the minimum inhibitory concentrations of the compounds of Examples XII to XVI, determined on the agar medium, N.A., and expressed in μg/cm^3.

[2] = system: B. subtilis; assay: Minimum inhibitory concentration by agar dilution, B. subtilis; conditions: Bacillus subtilis, 37° C., 18 hours, read-out: minimum inhibitory concentration (M.I.C.)
Experimental: as §1, §2, §3, §4, §5

[3] = system: Pr. vulgaris; assay: Minimum inhibitory concentration by agar dilution, Pr. vulgaris; conditions: Proteus vulgaris
Experimental: as §1, §2, §3, §4, §5

[4] = system: Pr. morganii; assay: Minimum inhibitory concentration by agar dilution, Pr. morganii; conditions: Morganella morganii
Experimental: as §1, §2, §3, §4, §5

[5] = system: Salm. typhi; assay: Minimum inhibitory concentration by agar dilution, Salm. typhi; conditions: Salmonella enterica, 18 h
Experimental: as §1, §2, §3, §4, §5

[6] = system: B. pyocyaneus A22; assay: Minimum inhibitory concentration by agar dilution, B. pyocyaneus A22; conditions: Pseudomonas aeruginosa, A22, 37° C., 18 hours, read-out: minimum inhibitory concentration (M.I.C.)
Experimental: as §1, §2, §3, §4, §5

[7] = system: B. pyocyaneus TUR; assay: Minimum inhibitory concentration by agar dilution, B. pyocyaneus TUR; conditions: Pseudomonas aeruginosa, 37° C., 18 hours
Experimental: as §1, §2, §3, §4

[8] = system: Streptococcus; assay: Minimum inhibitory concentration by agar dilution, Streptococcus Group A
Experimental: as §1, §2, §3, §4, §5

[9] = system: Klebs. pneumoniae; assay: Minimum inhibitory concentration by agar dilution, Klebs. pneumoniae; conditions: Klebsiella pneumoniae, 37° C., 18 hours, read-out: minimum inhibitory concentration (M.I.C.)
Experimental: as §1, §2, §3, §4, §5

[10] = system: Gram-negative microorganisms; assay: In vitro anti-microbial activity on agar media, overall; conditions: in vitro
Experimental: as §4

[11] = system: Esch. Coli 95; assay: Minimum inhibitory concentration by agar dilution, Esch. Coli 95; conditions: Escherichia coli
Experimental: as §1, §2, §3, §4, §5

[12] = system: Staphylococcus 209 P; assay: Minimum inhibitory concentration by agar dilution, Staphylococcus 209 P; conditions: Staphylococcus, 37° C., 18 hours, read-out: minimum inhibitory concentration (M.I.C.)
Experimental: as §1, §2, §3, §4, §5

[13] = system: Pr. mirabilis; assay: Minimum inhibitory concentration by agar dilution, Pr. mirabilis; conditions: Proteus mirabilis
Experimental: as §1, §2, §3, §4, §5

[14] = system: Sh. sonnei; assay: Minimum inhibitory concentration by agar dilution, Sh. sonnei; conditions: Shigella sonnei, 37° C., 18 hours, read-out: minimum inhibitory concentration (M.I.C.)
Experimental: as §1, §2, §3, §4, §5

[15] = N.A. (nutrient agar, pH 6.8), Table I
[16] = T.S.A. (trypticase soya medium, pH 7.3)
[17] = N.A. (nutrient agar, pH 6.8), 37° C., 18 hours, Table I, read-out: minimum inhibitory concentration (M.I.C.)
[18] = T.S.A. (trypticase soya medium, pH 7.3), 37° C., 18 hours, read-out: minimum inhibitory concentration (M.I.C.)
[19] = pH 6.8, read-out: minimum inhibitory concentration (M.I.C.)
[20] = pH 7.3, read-out: minimum inhibitory concentration (M.I.C.)
[21] = T.S.A. (trypticase soya medium, pH 7.3), read-out: minimum inhibitory concentration (M.I.C.)
[22] = 18 h, pH 7.3, read-out: minimum inhibitory concentration (M.I.C.)
[23] = 18 h, pH 6.8, read-out: minimum inhibitory concentration (M.I.C.)

Structure (SMILES) | MIC [1, 15] [µg/mL] | MIC [1, 16] [µg/mL] | MIC [2, 15] [µg/mL] | MIC [2, 16] [µg/mL] | MIC [3, 17] [µg/mL] | MIC [4, 17] [µg/mL] | MIC [5, 19] [µg/mL] | MIC [5, 20] [µg/mL] | MIC [6, 15] [µg/mL] | MIC [6, 16] [µg/mL] | MIC [7, 15] [µg/mL] | MIC [7, 21] [µg/mL] | MIC [9, 15] [µg/mL] | MIC [9, 16] [µg/mL] | activity against Gram-negative microorganisms [10] | MIC [11, 17] [µg/mL] | MIC [12, 15] [µg/mL] | MIC [12, 16] [µg/mL] | MIC [14, 15] [µg/mL] | MIC [14, 16] [µg/mL] | other results
CN1CCN(c2ncc3c(=O)c(C(=O)O)cn(C)c3n2)CC1 [Example X, 2-(4'-Methyl-piperazino)-5-oxo-8-methyl-5,8-dihydropyrido-(2,3-d)pyrimidine-6-carboxylic acid] | 25 (≈ 82.4 µM) | 100 (≈ 330 µM) | 100 (≈ 330 µM) | > 100 | 3.1 (≈ 10.2 µM) | 3.1 (≈ 10.2 µM) | 3.1 (≈ 10.2 µM) | 12.5 (≈ 41.2 µM) | 50 (≈ 165 µM) | > 100 | 50 (≈ 165 µM) | > 100 | 6.2 (≈ 20.4 µM) | 6.2 (≈ 20.4 µM) | particularly active against Gram-negative microorganisms | 1.6 (≈ 5.27 µM) | 50 (≈ 165 µM) | 100 (≈ 330 µM) | 12.5 (≈ 41.2 µM) | 3.1 (≈ 10.2 µM) | MIC [3, 18]: 25 µg/mL (≈ 82.4 µM); MIC [4, 18]: 6.2 µg/mL (≈ 20.4 µM); MIC [8, 17]: 50 µg/mL (≈ 165 µM); MIC [8, 18]: 100 µg/mL (≈ 330 µM); MIC [11, 18]: 6.2 µg/mL (≈ 20.4 µM); MIC [13, 22]: 12.5 µg/mL (≈ 41.2 µM); MIC [13, 17]: 3.1 µg/mL (≈ 10.2 µM)
CCn1cc(C(=O)O)c(=O)c2cnc(N3CCC(O)CC3)nc21 [IV, 2-(4'-Hydroxy-piperidino)-5-oxo-8-ethyl-5,8-dihydropyrido(2,3-d)pyrimidine-6-carboxylic acid] | 100 (≈ 314 µM) | > 100 | 0.8 (≈ 2.51 µM) | 3.1 (≈ 9.74 µM) | 3.1 (≈ 9.74 µM) | 0.4 (≈ 1.26 µM) | 6.2 (≈ 19.5 µM) | 12.5 (≈ 39.3 µM) | 100 (≈ 314 µM) | > 100 | 100 (≈ 314 µM) | > 100 | 0.4 (≈ 1.26 µM) | 0.8 (≈ 2.51 µM) | particularly active against Gram-negative microorganisms | 6.2 (≈ 19.5 µM) | 1.6 (≈ 5.03 µM) | 50 (≈ 157 µM) | 3.1 (≈ 9.74 µM) | 12.5 (≈ 39.3 µM) | MIC [3, 22]: 12.5 µg/mL (≈ 39.3 µM); MIC [4, 18]: 0.8 µg/mL (≈ 2.51 µM); MIC [8, 23]: 12.5 µg/mL (≈ 39.3 µM); MIC [8, 22]: 12.5 µg/mL (≈ 39.3 µM); MIC [11, 22]: 12.5 µg/mL (≈ 39.3 µM); MIC [13, 23]: 12.5 µg/mL (≈ 39.3 µM); MIC [13, 18]: 25 µg/mL (≈ 78.5 µM)
CCn1cc(C(=O)O)c(=O)c2cnc(N3CCN(Cc4ccccc4)CC3)nc21 [Example VII, 2-(4'-Benzyl-piperazino)-5-oxo-8-ethyl-5,8-dihydropyrido(2,3-d)pyrimidine-6-carboxylic acid] | 3.1 (≈ 7.88 µM) | > 100 | 0.4 (≈ 1.02 µM) | 0.8 (≈ 2.03 µM) | – | 3.1 (≈ 7.88 µM) | 1.6 (≈ 4.07 µM) | 12.5 (≈ 31.8 µM) | 100 (≈ 254 µM) | > 100 | 100 (≈ 254 µM) | > 100 | 0.4 (≈ 1.02 µM) | 1.6 (≈ 4.07 µM) | particularly active against Gram-negative microorganisms | 1.6 (≈ 4.07 µM) | 0.8 (≈ 2.03 µM) | 3.1 (≈ 7.88 µM) | 1.6 (≈ 4.07 µM) | 12.5 (≈ 31.8 µM) | MIC [3, 23]: 12.5 µg/mL (≈ 31.8 µM); MIC [3, 18]: 50 µg/mL (≈ 127 µM); MIC [4, 22]: 12.5 µg/mL (≈ 31.8 µM); MIC [8, 17]: 0.8 µg/mL (≈ 2.03 µM); MIC [8, 18]: 3.1 µg/mL (≈ 7.88 µM); MIC [11, 22]: 12.5 µg/mL (≈ 31.8 µM); MIC [13, 17]: 6.2 µg/mL (≈ 15.8 µM); MIC [13, 18]: 100 µg/mL (≈ 254 µM)
